Laboratory results published in ChEMBL document CHEMBL3137667, “[Drug-induced liver injury; fourteenth updated edition of the bibliographic database of liver injuries and related drugs]” (Gastroenterol Clin Biol, 2004).

Legend:
[1] = human, serum
[2] = human
[3] = human; remark: listed apart in the source
[4] = Comments (NB not yet translated). [column 'COMMENTAIRES' in source]; settings: human
[5] = Proposed mechanism(s) of liver damage. [column 'MEC' in source]; settings: human
[6] = human; remark: listed apart in the source
[7] = human; remark: listed apart in the source
[8] = human; remark: listed apart in the source
[9] = human; remark: listed apart in the source
[10] = human; remark: listed apart in the source
[11] = Presence of at least one case with successful reintroduction. [column 'REINT' in source]; settings: human
[12] = human, serum, 4383 h
[13] = human; remark: listed apart in the source
[14] = Times to onset, minimal and maximal, observed in the indexed observations. [column 'DELAI' in source]; settings: human
[15] = Highest frequency of moderate liver toxicity observed during clinical trials, expressed as a percentage. [column '% BIOL' in source]; settings: human
[16] = human; remark: listed apart in the source
[17] = Highest frequency of acute liver toxicity observed during clinical trials, expressed as a percentage. [column '% AIGUE' in source]; settings: human
[18] = human, serum; remark: listed apart in the source
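Throughout, for Hepatotoxicity (association with vascular disease): count of indexed literature references reporting vascular liver injury in humans, e.g. peliosis hepatitis, hepatic veno-occlusive disease or Budd-Chiari syndrome.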
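Throughout, for Hepatotoxicity (benign tumour): value is a count of indexed literature references citing a benign tumour confirmed by histopathology.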
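Throughout, for Hepatotoxicity (choleostasis): human cholestatic liver injury, shown by histopathology or by peak ALT or AST elevation over alkaline phosphatase ratio below 2, value counts indexed literature reports.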
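Throughout, for Hepatotoxicity (chronic liver disease): chronic liver injury confirmed by histopathology or persistently raised serum aminotransferase activity beyond 6 months, value given as the count of indexed literature references.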
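Throughout, for Hepatotoxicity (cirrhosis): value is a count of indexed literature references reporting cirrhosis confirmed by histopathology.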
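Throughout, for Hepatotoxicity (cytolytic): human cytolytic liver injury, shown by histopathology or by a ratio above 5 of peak ALT or AST elevation to alkaline phosphatase elevation, value counts indexed references.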
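Throughout, for Hepatotoxicity (granulomatous hepatitis): value is a count of indexed literature references reporting granulomatous liver disease confirmed by histopathology.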
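Throughout, for Hepatotoxicity (malignant tumour): malignant tumour confirmed by histopathology, value gives the count of indexed literature references reporting it.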
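Throughout, for Hepatotoxicity (severe hepatitis): human clinical data: severe hepatitis, meaning potentially life-threatening liver failure or clinically observed cases, the value counts how many indexed literature references report it.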
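Throughout, for Hepatotoxicity (steatosis): steatosis confirmed by histopathology, value is the count of indexed references.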

Row | SMILES | Hepatotoxicity (moderate) [1] | Hepatotoxicity (steatosis) [2] | Hepatotoxicity (comment) [4] | Hepatotoxicity (benign tumour) [8] | Hepatotoxicity (malignant tumour) [9] | Hepatotoxicity (successful reintroduction) [11] | Hepatotoxicity (chronic liver disease) [12] | Hepatotoxicity (cirrhosis) [13] | Hepatotoxicity (time to onset) [14] | Hepatotoxicity (association with vascular disease) [16] | Hepatotoxicity (choleostasis) [3] | Hepatotoxicity (severe hepatitis) [6] | Hepatotoxicity (acute) [17] [%] | Hepatotoxicity (cytolytic) [7] | Hepatotoxicity (acute) [18] | Hepatotoxicity (granulomatous hepatitis) [10] | Hepatotoxicity (moderate) [15] [%] | other results
1 | COc1cc(Cc2cnc(N)nc2N)cc(OC)c1OC.Cc1cc(NS(=O)(=O)c2ccc(N)cc2)no1 [CO-TRIMOXAZOLE] | 46 | 1 | RC/CEFADROXIL/SULFASALAZINE #CBP AC_ANTI-ML | 0 | 0 | yes | 3 | 0 | 2 hours - 2 months | 0 | – | – | – | – | – | – | – | Hepatotoxicity (choleostasis) ([3]; Liver): 35; Hepatotoxicity (mechanism) ([5]; Liver): Allergic, Dose-dependant, Toxic Metabolite; Hepatotoxicity (severe hepatitis) ([6]; Liver): 11; Hepatotoxicity (cytolytic) ([7]; Liver): 17; Hepatotoxicity (granulomatous hepatitis) ([10]; Liver): 1; Hepatotoxicity (moderate) ([15]; Liver): 53.8%
2 | Clc1ccc(C(c2ccccc2Cl)C(Cl)Cl)cc1 (stereo unspecified) [MITOTANE] | 5 | 0 | INDUCTION_ENZYMATIQUE | 0 | 0 | yes | 0 | 0 | – | 0 | 0 | 0 | 0 | 0 | 0 | 0 | 0 | Hepatotoxicity (mechanism) [5]: Dose-dependant
3 | O=C(N[C@H](CO)[C@H](O)c1ccc([N+](=O)[O-])cc1)C(Cl)Cl [CHLORAMPHENICOL] | 1 | 1 | RC/COTRIMOXAZOLE | 0 | 0 | yes | 0 | 0 | 1 month - 2 months | 0 | 1 | 0 | 7.7 | 2 | 14 | 0 | 46.2 | –
4 | Nc1ccn([C@@H]2CS[C@H](CO)O2)c(=O)n1 [LAMIVUDINE] | 15 | 13 | REACTIVATION_HVB REACTIVATION_HVC | 0 | 0 | yes | 1 | 0 | 10 days - 3 years | 0 | 1 | – | – | 26 | 30 | 0 | – | Hepatotoxicity (severe hepatitis) ([6]; Liver): 15; Hepatotoxicity (acute) ([17]; Liver): 12.5%; Hepatotoxicity (moderate) ([15]; Liver): 44%
5 | O=C1OCCN1/N=C/c1ccc([N+](=O)[O-])o1 [FURAZOLIDONE] | 1 | 0 | RC/NITROFURANTOINE | 0 | 0 | yes | 0 | 0 | – | – | 3 | 0 | 0 | 1 | 3 | 0 | 0 | Hepatotoxicity (mechanism) [5]: Allergic
6 | CCN1CCN(C(=O)N[C@@H](C(=O)N[C@@H]2C(=O)N3[C@@H]2SC(C)(C)[C@@H]3C(=O)O)c2ccccc2)C(=O)C1=O [PIPERACILLIN] | 14 | 0 | CHOLANGITE | 0 | 0 | yes | 0 | 0 | 2 weeks | 0 | 3 | 0 | 0.2 | 1 | 4 | 0 | 25.6 | –
7 | OCCN1CCN(CCCN2c3ccccc3Sc3ccc(C(F)(F)F)cc32)CC1 [FLUPHENAZINE] | 2 | 0 | RC/HALOPERIDOL | 0 | 0 | yes | 0 | 0 | 2 weeks | 0 | 4 | 0 | 1 | 1 | 5 | 0 | 0 | –
8 | Nc1cc([As]2[As](c3ccc(O)c(N)c3)[As](c3ccc(O)c(N)c3)[As](c3ccc(O)c(N)c3)[As]2c2ccc(O)c(N)c2)ccc1O.Nc1cc([As]2[As](c3ccc(O)c(N)c3)[As]2c2ccc(O)c(N)c2)ccc1O (stereo unspecified) | 0 | 0 | CHOLESTASE_PROLONGEE CHOLANGITE | 0 | 0 | yes | 0 | 0 | 1 week - 1 year | 0 | 1 | 1 | 0 | 1 | 6 | 0 | 0 | –
9 | Cc1ccc(S(=O)(=O)NC(=O)NN2CCCCCC2)cc1 [TOLAZAMIDE] | 0 | 0 | CHOLESTASE_PROLONGEE RC/CHLORPROPAMIDE | 0 | 0 | yes | 0 | 0 | 3 weeks - 18 months | 0 | 4 | 1 | 0 | 5 | 5 | 0 | 0 | –
